Data from ChEMBL document CHEMBL1914411, “Synthesis of lipophilic dimeric C-7/C-7-linked ciprofloxacin and C-6/C-6-linked levofloxacin derivatives. Versatile in vitro biological evaluations of monomeric and dimeric fluoroquinolone derivatives as potential antitumor, antibacterial or antimycobacterial agents” (Eur J Med Chem, 2011).
Values after ≈ are worked out from the molar mass of the structure shown. Active and inactive are the calls of the source.

What was measured:
[1] = system: Mycobacterium tuberculosis; test: Antimycobacterial activity against Mycobacterium tuberculosis H37Rv assessed as growth inhibition at 0.1 uM after 6 days by MTT colorimetric microassay; format: functional, organism-based
Enterococcus hirae = test: Antimicrobial activity against Enterococcus hirae CIP 5855 after 18 to 24 hrs by broth microdilution method; format: functional
[2] = system: Mycobacterium tuberculosis; test: Antimycobacterial activity against Mycobacterium tuberculosis H37Rv assessed as growth inhibition at 10 uM after 6 days by MTT colorimetric microassay; format: functional; conditions: for inhibition of growth at 10 µM: 144 h, read-out: GI
Pseudomonas aeruginosa = test: Antimicrobial activity against Pseudomonas aeruginosa CIP 82.118 after 18 to 24 hrs by broth microdilution method; format: functional
Escherichia coli = test: Antimicrobial activity against Escherichia coli CIP 53126 after 18 to 24 hrs by broth microdilution method; format: functional
Staphylococcus aureus [3] = test: Antimicrobial activity against Staphylococcus aureus CIP 4.83 after 18 to 24 hrs by broth microdilution method; format: functional
Staphylococcus aureus [4] = test: Antimicrobial activity against multidrug-resistant Staphylococcus aureus isolate 1 after 18 to 24 hrs by broth microdilution method; format: functional
Staphylococcus aureus [5] = test: Antimicrobial activity against multidrug-resistant Staphylococcus aureus isolate 2 after 18 to 24 hrs by broth microdilution method; format: functional
Staphylococcus aureus [6] = test: Antimicrobial activity against methicillin-resistant Staphylococcus aureus ATCC 33592 after 18 to 24 hrs by broth microdilution method; format: functional
Staphylococcus aureus [7] = test: Antimicrobial activity against methicillin-resistant Staphylococcus aureus ATCC 33591 after 18 to 24 hrs by broth microdilution method; format: functional
[8] = system: Mycobacterium tuberculosis; test: Antimycobacterial activity against Mycobacterium tuberculosis H37Rv after 6 days by MTT colorimetric microassay; format: functional, organism-based; conditions: 144 h

Row | SMILES | growth inhibition (GI) [1] | MBC (Enterococcus hirae) | MIC (Enterococcus hirae) | inhibition of growth at 10 µM [2] | MBC (Pseudomonas aeruginosa) | MIC (Pseudomonas aeruginosa) | MBC (Escherichia coli) | MIC (Escherichia coli) | MBC (Staphylococcus aureus [3]) | MIC (Staphylococcus aureus [3]) | growth inhibition (GI) [2] | MBC (Staphylococcus aureus [4]) | MIC (Staphylococcus aureus [4]) | MBC (Staphylococcus aureus [5]) | MIC (Staphylococcus aureus [5]) | MBC (Staphylococcus aureus [6]) | MIC (Staphylococcus aureus [6]) | MBC (Staphylococcus aureus [7]) | MIC (Staphylococcus aureus [7]) | further results
1 | CCCCCCCCCCCCCCNC(=O)c1cn2c3c(c(N4CCN(C)CC4)c(F)cc3c1=O)OC[C@@H]2C | inactive | 3.9 µM (≈ 2.17 µg/mL) | 3.9 µM (≈ 2.17 µg/mL) | > 95% | 250 µM (≈ 139 µg/mL) | 62.5 µM (≈ 34.8 µg/mL) | 250 µM (≈ 139 µg/mL) | 125 µM (≈ 69.6 µg/mL) | 31.2 µM (≈ 17.4 µg/mL) | 7.8 µM (≈ 4.34 µg/mL) |  |  |  |  |  |  |  |  |  | 
2 | O=C(O)c1cn(C2CC2)c2cc(N3CCN(C(=O)CCCCCCCCC(=O)N4CCN(c5cc6c(cc5F)c(=O)c(C(=O)O)cn6C5CC5)CC4)CC3)c(F)cc2c1=O | inactive | 250 µM (≈ 207 µg/mL) | 250 µM (≈ 207 µg/mL) |  | 125 µM (≈ 104 µg/mL) | 62.5 µM (≈ 51.8 µg/mL) | 250 µM (≈ 207 µg/mL) | 250 µM (≈ 207 µg/mL) | 250 µM (≈ 207 µg/mL) | 250 µM (≈ 207 µg/mL) | inactive |  |  |  |  |  |  |  |  | 
3 | C[C@H]1COc2c(N3CCN(C)CC3)c(F)cc3c(=O)c(C(=O)NCCCCCCCCNC(=O)c4cn5c6c(c(N7CCN(C)CC7)c(F)cc6c4=O)OC[C@@H]5C)cn1c23 | inactive | 125 µM (≈ 104 µg/mL) | 62.5 µM (≈ 51.9 µg/mL) | 60% | 250 µM (≈ 208 µg/mL) | 62.5 µM (≈ 51.9 µg/mL) | 3.9 µM (≈ 3.24 µg/mL) | 3.9 µM (≈ 3.24 µg/mL) | 15.6 µM (≈ 13 µg/mL) | 15.6 µM (≈ 13 µg/mL) |  |  |  |  |  |  |  |  |  | 
4 | O=C(O)c1cn(C2CC2)c2cc(N3CCN(C(=O)CCCCCCCCCCCCCCCCC(=O)N4CCN(c5cc6c(cc5F)c(=O)c(C(=O)O)cn6C5CC5)CC4)CC3)c(F)cc2c1=O | inactive | 500 µM (≈ 471 µg/mL) | 125 µM (≈ 118 µg/mL) |  | 250 µM (≈ 235 µg/mL) | 125 µM (≈ 118 µg/mL) | 500 µM (≈ 471 µg/mL) | 125 µM (≈ 118 µg/mL) | 500 µM (≈ 471 µg/mL) | 125 µM (≈ 118 µg/mL) | inactive |  |  |  |  |  |  |  |  | 
5 | O=C(CCCCCCCCCCCCCCCCC(=O)OCN1CCN(c2cc3c(cc2F)c(=O)c(C(=O)O)cn3C2CC2)CC1)OCN1CCN(c2cc3c(cc2F)c(=O)c(C(=O)O)cn3C2CC2)CC1 | inactive | 125 µM (≈ 125 µg/mL) | 62.5 µM (≈ 62.6 µg/mL) |  | 250 µM (≈ 250 µg/mL) | 62.5 µM (≈ 62.6 µg/mL) | 31.2 µM (≈ 31.2 µg/mL) | 15.6 µM (≈ 15.6 µg/mL) | 15.6 µM (≈ 15.6 µg/mL) | 7.8 µM (≈ 7.81 µg/mL) | inactive |  |  |  |  |  |  |  |  | 
6 | O=C(O)c1cn(C2CC2)c2cc(N3CCNCC3)c(F)cc2c1=O [CIPROFLOXACIN] | inactive | 1.9 µM (≈ 0.63 µg/mL) | ≤ 0.97 µM |  | ≤ 0.97 µM | ≤ 0.97 µM | ≤ 0.97 µM | ≤ 0.97 µM | ≤ 0.97 µM | ≤ 0.97 µM |  | 62.5 µM (≈ 20.7 µg/mL) | 31.2 µM (≈ 10.3 µg/mL) | 31.2 µM (≈ 10.3 µg/mL) | 31.2 µM (≈ 10.3 µg/mL) | 0.97 µM (≈ 0.321 µg/mL) | 0.48 µM (≈ 0.159 µg/mL) | 1.9 µM (≈ 0.63 µg/mL) | 0.97 µM (≈ 0.321 µg/mL) | IC50 [8]: 1.6 µM; MIC [8]: 2.5 µM (≈ 0.828 µg/mL)
7 | CCCCCCCC(=O)OCC(=O)N1CCN(c2cc3c(cc2F)c(=O)c(C(=O)O)cn3C2CC2)CC1 | inactive | ≤ 0.97 µM | ≤ 0.97 µM | > 95% | 250 µM (≈ 129 µg/mL) | 31.2 µM (≈ 16.1 µg/mL) | 62.5 µM (≈ 32.2 µg/mL) | 31.2 µM (≈ 16.1 µg/mL) | ≤ 0.001 µM | ≤ 0.001 µM |  | 500 µM (≈ 258 µg/mL) | 7.8 µM (≈ 4.02 µg/mL) | 15.6 µM (≈ 8.04 µg/mL) | 15.6 µM (≈ 8.04 µg/mL) | ≤ 0.001 µM | ≤ 0.001 µM |  | ≤ 0.001 µM | 
8 | CCCCCCCCCCC(=O)OCC(=O)N1CCN(c2cc3c(cc2F)c(=O)c(C(=O)O)cn3C2CC2)CC1 | inactive | 1.9 µM (≈ 1.06 µg/mL) | ≤ 0.97 µM | > 95% | 250 µM (≈ 139 µg/mL) | 62.5 µM (≈ 34.9 µg/mL) | 250 µM (≈ 139 µg/mL) | 62.5 µM (≈ 34.9 µg/mL) | ≤ 0.97 µM | ≤ 0.97 µM |  | 500 µM (≈ 279 µg/mL) | 15.6 µM (≈ 8.7 µg/mL) | 15.6 µM (≈ 8.7 µg/mL) | 7.8 µM (≈ 4.35 µg/mL) | 0.03 µM (≈ 0.0167 µg/mL) |  | 1.9 µM (≈ 1.06 µg/mL) | 0.97 µM (≈ 0.541 µg/mL) | 
9 | CCCCCCCCC(=O)N1CCN(c2cc3c(cc2F)c(=O)c(C(=O)O)cn3C2CC2)CC1 | inactive | 31.2 µM (≈ 14.7 µg/mL) | 31.2 µM (≈ 14.7 µg/mL) | > 95% | 250 µM (≈ 118 µg/mL) | 62.5 µM (≈ 29.5 µg/mL) | 500 µM (≈ 236 µg/mL) | 31.2 µM (≈ 14.7 µg/mL) | ≤ 0.03 µM | ≤ 0.97 µM |  | 500 µM (≈ 236 µg/mL) | 31.2 µM (≈ 14.7 µg/mL) | 500 µM (≈ 236 µg/mL) | 31.2 µM (≈ 14.7 µg/mL) | 0.24 µM (≈ 0.113 µg/mL) | 0.12 µM (≈ 0.0566 µg/mL) | 0.24 µM (≈ 0.113 µg/mL) | 0.02 µM (≈ 0.00943 µg/mL) | 
10 | CCCCCCCCC(=O)OCC(=O)N1CCN(c2cc3c(cc2F)c(=O)c(C(=O)O)cn3C2CC2)CC1 | inactive | ≤ 0.97 µM | ≤ 0.97 µM | > 95% | 250 µM (≈ 132 µg/mL) | 31.2 µM (≈ 16.5 µg/mL) | 500 µM (≈ 265 µg/mL) | 62.5 µM (≈ 33.1 µg/mL) | ≤ 0.12 µM | ≤ 0.12 µM |  | 15.6 µM (≈ 8.26 µg/mL) | 7.8 µM (≈ 4.13 µg/mL) | 15.6 µM (≈ 8.26 µg/mL) | 7.8 µM (≈ 4.13 µg/mL) | 0.02 µM (≈ 0.0106 µg/mL) | 0.02 µM (≈ 0.0106 µg/mL) | 0.24 µM (≈ 0.127 µg/mL) | 0.03 µM (≈ 0.0159 µg/mL) | 
